Experimental findings from patent publication US8557797B2, “Triazolopyridine derivatives and their therapeutic use” (Chiesi Farmaceutici S.p.A., priority 2009, dated 2013) are described below.

The subject of test [1] is TNFα release from LPS activated THP-1 cells or PBMC's. Nature of the test: p38 Functional Assay (TNFα release after LPS). Format: cell-based. The conditions noted are these: Homo sapiens, 1 h pre-treatment, 0.3% DMSO, read-out: EC50 (inhibition of TNFα release). As to the method: Inhibition of cellular p38 depresses the release of TNFα, a functional response which is quantified by measurement of the amount of TNFα in the supernatants of LPS activated THP-1 cells (an immortalised monocytic cell line) or peripheral blood mononuclear cells (PBMC's) isolated from freshly drawn human blood.
Cells seeded in 96 well plates are pre-treated by the addition of p38 inhibitors for 1 h followed by addition of lipopolysaccharide (LPS) to activate cytokine production and release. The amount of TNFα released into the cell supernatants is quantified using an R&D Systems enzyme linked immunosorbant assay (ELISA) kit (product DY210) following the manufacturers instructions.
Compounds are diluted in DMSO prior to addition, the final DMSO concentration in the assay being 0.3%. The EC50 is defined as the concentration at which a given compound achieves 50% inhibition of the control.

The next test has as its target T1, p38α (Homo sapiens, UniProt Q16539).
T1 construct: purchased Calbiochem 559324; host or cells: E. coli
Nature of the test: p38 Kinase Assay (ATF-2 phosphorylation ELISA). It is filed as biochemical. The conditions noted are these: 2 h pre-incubation, ATP 250 μM, 1% DMSO; read-out: p38α inhibition (IC50 values). As to the method: Human recombinant p38 enzyme expressed in E. coli and activated by incubation with MKK6 enzyme (Calbiochem #559324) is used as source of enzyme activity.
The assay is carried in high binding, clear, flat bottom 96 well assay plates which have been coated with recombinant ATF-2 (Biosource #PHF0043). Test compounds are incubated with p38 kinase for 2 h prior to initiating the kinase assay by the addition of ATP to obtain an assay concentration of 250 μM. Phosphorylation of ATF-2 is detected and quantified using an ELISA. This consists of sequential incubation in the presence of anti-phospho-ATF2, biotinylated anti-IgG and streptavidin-HRP. Incubation with an HRP chromogenic substrate (TMB) results in absorbance that is proportional to the amount of phosphorylated substrate produced. Absorbance is detected using a multiwell plate reader.
Compounds are diluted in DMSO prior to addition to assay buffer, the final DMSO concentration in the assay being 1%.
The IC50 is defined as the concentration at which a given compound achieves 50% inhibition of control.
Background: An ELISA detects its analyte on a solid surface through an enzyme-linked reagent.

Test [2] relates to BAL cell influx induced by tobacco smoke. Nature of the test: Tobacco smoke induced pulmonary inflammation, mouse model of COPD inflammation. It is filed as in vivo. The following applies: mice, intranasal, 30, 100 or 300 μg/kg, 4 days TS, BAL 24 h after final exposure (FIG. 1). As to the method: Pre-clinical mouse model of COPD inflammation—Tobacco smoke induced pulmonary inflammation. […] In this exposure protocol, mice were exposed in groups of 5 in individual clear polycarbonate chambers (27 cm×16 cm×12 cm). The TS from the cigarettes was allowed to enter the exposure chambers at a flow rate of 100 ml/min. In order to minimise any potential problems caused by repeated exposure to a high level of TS (6 cigarettes), the exposure of the mice to TS was increased gradually over the exposure period to a maximum of 6 cigarettes. The exposure schedule used for 4 days was as follows: Bronchoalveolar lavage was performed as follows: the trachea was cannulated using a Portex nylon intravenous cannula (pink luer fitting) shortened to approximately 8 mm. […] The cell pellet was re-suspended in a known volume of PBS and total cell numbers calculated by counting a stained (Turks stain) aliquot under a microscope using a haemocytometer. […] When dried and cover-slipped, differential cells were counted using light microscopy. Up to 400 cells were counted by unbiased operator using light microscopy. […] All results are presented as individual data points for each animal and the mean value was calculated for each group. […] Percentage inhibitions were automatically calculated within the Excel spreadsheets for the cell data using the formula below: […]

T1 sequence (Q16539 whole entry): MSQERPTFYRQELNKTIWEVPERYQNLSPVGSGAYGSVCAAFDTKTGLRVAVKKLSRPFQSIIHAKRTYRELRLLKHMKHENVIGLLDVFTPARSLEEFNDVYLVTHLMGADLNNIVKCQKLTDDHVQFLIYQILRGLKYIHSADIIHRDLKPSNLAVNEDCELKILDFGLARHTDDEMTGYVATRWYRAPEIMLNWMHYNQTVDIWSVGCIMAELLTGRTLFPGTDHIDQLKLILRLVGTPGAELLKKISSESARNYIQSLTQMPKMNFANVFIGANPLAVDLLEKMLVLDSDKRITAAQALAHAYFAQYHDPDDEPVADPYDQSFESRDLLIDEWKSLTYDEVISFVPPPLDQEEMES

Turning to `Cc1ccc(-n2nc(C(C)(C)C)cc2NC(=O)Nc2ccc(Sc3ccc4nnc(-c5cccc(OCCN6CCOCC6)c5)n4c3)cc2)cc1` [Example 10, 1-(5-tert-Butyl-2-p-tolyl-2H-pyrazol-3-yl)-3-(4-{3-[3-(2-morpholin-4-yl-ethoxy)-phenyl]-[1,2,4]triazolo[4,3-a]pyridin-6-ylsulfanyl}-phenyl)-urea], the EC50 in test [1] lay in the range of 0.01 to 0.1 µM. Further, the IC50 on p38α lay in the range of 0.01 to 0.1 µM. Also, the “BAL cell influx induced by TS” value in test [2] is on record as “significantly inhibited”.

Broadly, the EC50 is the concentration needed to bring the measured effect to its halfway point. The IC50 is the point on the concentration scale where inhibition reaches its midpoint.
